From ChEMBL document CHEMBL5543112, “Discovery of CBPD-268 as an Exceptionally Potent and Orally Efficacious CBP/p300 PROTAC Degrader Capable of Achieving Tumor Regression” (J Med Chem, 2024)

Assay: Drug concentration in SCID mouse tumor at 1 mg/kg, po measured at 1 hr by LC-MS/MS analysis
Type: ADME, organism-based, Neoplasm
Conditions: read-out: Ct

CC(=O)N1CCc2c(c(N3CCCc4cc(-c5cnn(C)c5)c(C(F)F)cc43)nn2[C@H]2CC[C@H](CN3Cc4cc5c(cc4C3)C(=O)N(C3CCC(=O)NC3=O)C5=O)CC2)C1 (stereo partly specified)
concentration at 1 h: 30.8 ng/g
